Measured values as given in ChEMBL document CHEMBL1240377, “Comparison of anidulafungin MICs determined by the clinical and laboratory standards institute broth microdilution method (M27-A3 document) and Etest for Candida species isolates” (2010).
Values after ≈ are worked out from the molar mass of the structure shown. *1 amine or outer side, *2 acyl side, *3 side chain or, on linkers, in order; H or OH if unused. Where a SMILES comes first, the peptide text is derived from it. Bridges are numbered along the chain shown (N, C = ends). [ ]: non-standard residue; d: D form. The star is where a group is joined. hTyr(3S-OH,4S-OH,3'-OSO3H) = N[C@H](C(=O)O)[C@H](O)[C@@H](O)c1ccc(O)c(OS(=O)(=O)O)c1; pTerphenylCO(4''-OnC5H11) = CCCCCOc1ccc(-c2ccc(-c3ccc(C(=O)*)cc3)cc2)cc1; Orn(4R-OH,5R-OH) = O=C([C@H](C[C@@H](O)[C@@H](O)N[*:3])N[*:1])[*:2]; hTyr(3S-OH,4S-OH) = N[C@H](C(=O)O)[C@H](O)[C@@H](O)c1ccc(O)cc1; Pro(3S-OH,4S-Me) = C[C@H]1CN[C@H](C(=O)O)[C@H]1O; X1 = CCCCCOc1ccc(-c2cc(-c3ccc(C(=O)*)cc3)no2)cc1; Gln(3R-OH) = NC(=O)C[C@@H](O)[C@H](N)C(=O)O; Hyp = O=C(O)[C@@H]1C[C@@H](O)CN1

What was measured:
Format in all cases: functional
[1] = test system: Candida albicans; assay: Antimicrobial activity against caspofungin-resistant Candida albicans CAI4R1 expressing heterozygous […] mutant gene by CLSI M27-A3 broth microdilution method
[2] = test system: Candida albicans; assay: Antimicrobial activity against caspofungin-resistant Candida albicans T25 by CLSI M27-A3 broth microdilution method
[3] = test system: Candida albicans; assay: Antimicrobial activity against caspofungin-resistant Candida albicans T26 by CLSI M27-A3 broth microdilution method
[4] = test system: Candida albicans; assay: Antimicrobial activity against caspofungin-resistant Candida albicans NR2 expressing heterozygous […] mutant gene by CLSI M27-A3 broth microdilution method
[5] = test system: Candida albicans; assay: Antimicrobial activity against caspofungin-resistant Candida albicans NR3 expressing homozygous […] mutant gene by CLSI M27-A3 broth microdilution method
[6] = test system: Candida albicans; assay: Antimicrobial activity against caspofungin-resistant Candida albicans NR4 expressing heterozygous […] mutant gene by CLSI M27-A3 broth microdilution method
[7] = test system: Candida albicans; assay: Antimicrobial activity against caspofungin-resistant Candida albicans T32 by CLSI M27-A3 broth microdilution method
[8] = test system: Candida albicans; assay: Antimicrobial activity against caspofungin-resistant Candida albicans CAI4 by CLSI M27-A3 broth microdilution method
[9] = test system: Pichia kudriavzevii; assay: Antimicrobial activity against caspofungin-susceptible Issatchenkia orientalis CY-118 CLSI by M27-A3 broth microdilution method
[10] = test system: Candida albicans; assay: Antimicrobial activity against caspofungin-resistant Candida albicans CAI4R1 expressing heterozygous […] mutant gene by Etest
[11] = test system: Candida albicans; assay: Antimicrobial activity against caspofungin-resistant Candida albicans T25 by Etest
[12] = test system: Candida albicans; assay: Antimicrobial activity against caspofungin-resistant Candida albicans T26 by Etest
[13] = test system: Candida albicans; assay: Antimicrobial activity against caspofungin-resistant Candida albicans NR2 expressing heterozygous […] mutant gene by Etest
[14] = test system: Candida albicans; assay: Antimicrobial activity against caspofungin-resistant Candida albicans NR3 expressing homozygous […] mutant gene by Etest
[15] = test system: Candida albicans; assay: Antimicrobial activity against caspofungin-resistant Candida albicans NR4 expressing heterozygous […] mutant gene by Etest
[16] = test system: Candida albicans; assay: Antimicrobial activity against caspofungin-resistant Candida albicans T32 by Etest
[17] = test system: Candida albicans; assay: Antimicrobial activity against caspofungin-resistant Candida albicans CAI4 by Etest
[18] = test system: Pichia kudriavzevii; assay: Antimicrobial activity against caspofungin-susceptible Candida krusei CY-118 by Etest
[19] = test system: Candida albicans; assay: Antimicrobial activity against Candida albicans after 24 hrs CLSI M27-A3 broth microdilution method
[20] = test system: Candida albicans; assay: Antimicrobial activity against Candida albicans after 24 hrs by Etest
[21] = test system: Candida parapsilosis; assay: Antimicrobial activity against Candida parapsilosis after 24 hrs by CLSI M27-A3 broth microdilution method; conditions: Lodderomyces parapsilosis
[22] = test system: Candida parapsilosis; assay: Antimicrobial activity against Candida parapsilosis after 24 hrs by Etest; conditions: Lodderomyces parapsilosis
[23] = test system: Candida tropicalis; assay: Antimicrobial activity against Candida tropicalis after 24 hrs by CLSI M27-A3 broth microdilution method
[24] = test system: Candida tropicalis; assay: Antimicrobial activity against Candida tropicalis after 24 hrs by Etest
[25] = test system: Nakaseomyces glabratus; assay: Antimicrobial activity against Candida glabrata after 24 hrs by CLSI M27-A3 broth microdilution method
[26] = test system: Nakaseomyces glabratus; assay: Antimicrobial activity against Candida glabrata after 24 hrs by Etest
[27] = test system: Pichia kudriavzevii; assay: Antimicrobial activity against Issatchenkia orientalis after 24 hrs by CLSI M27-A3 broth microdilution method
[28] = test system: Pichia kudriavzevii; assay: Antimicrobial activity against Issatchenkia orientalis after 24 hrs by Etest
[29] = test system: Meyerozyma guilliermondii; assay: Antimicrobial activity against Pichia guilliermondii ATCC 6260 after 24 hrs by CLSI M27-A3 broth microdilution method; conditions: ATCC 6260, 24 h
[30] = test system: Meyerozyma guilliermondii; assay: Antimicrobial activity against Pichia guilliermondii ATCC 6260 after 24 hrs by Etest; conditions: ATCC 6260, 24 h
[31] = test system: Debaryomyces hansenii; assay: Antimicrobial activity against Candida famata after 24 hrs by CLSI M27-A3 broth microdilution method
[32] = test system: Debaryomyces hansenii; assay: Antimicrobial activity against Candida famata after 24 hrs by Etest
[33] = test system: Clavispora lusitaniae; assay: Antimicrobial activity against Clavispora lusitaniae ATCC 42720 after 24 hrs by CLSI M27-A3 broth microdilution method; conditions: ATCC 42720, 24 h
[34] = test system: Clavispora lusitaniae; assay: Antimicrobial activity against Clavispora lusitaniae ATCC 42720 after 24 hrs by Etest; conditions: ATCC 42720, 24 h

CCCCCOc1ccc(-c2cc(-c3ccc(C(=O)N[C@H]4C[C@@H](O)[C@@H](O)NC(=O)[C@@H]5[C@@H](O)[C@@H](C)CN5C(=O)[C@H]([C@H](O)CC(N)=O)NC(=O)[C@H]([C@H](O)[C@@H](O)c5ccc(O)c(OS(=O)(=O)O)c5)NC(=O)[C@@H]5C[C@@H](O)CN5C(=O)[C@H]([C@@H](C)O)NC4=O)cc3)no2)cc1 [MICAFUNGIN] (X1-[Orn(4R-OH,5R-OH)]T[Hyp][hTyr(3S-OH,4S-OH,3'-OSO3H)][Gln(3R-OH)][Pro(3S-OH,4S-Me)]; lactam 1-C)
MIC [1]: 0.25 µg/mL (≈ 0.197 µM)
MIC [2]: 1 µg/mL (≈ 0.787 µM)
MIC [3]: 1 µg/mL (≈ 0.787 µM)
MIC [4]: 0.25 µg/mL (≈ 0.197 µM)
MIC [5]: 1 µg/mL (≈ 0.787 µM)
MIC [6]: 0.25 µg/mL (≈ 0.197 µM)
MIC [7]: ≤ 0.032 µg/mL
MIC [8]: ≤ 0.032 µg/mL
MIC [9]: 1 µg/mL (≈ 0.787 µM)

CCCCCOc1ccc(-c2ccc(-c3ccc(C(=O)N[C@H]4C[C@@H](O)[C@@H](O)NC(=O)[C@@H]5[C@@H](O)[C@@H](C)CN5C(=O)[C@H]([C@@H](C)O)NC(=O)[C@H]([C@H](O)[C@@H](O)c5ccc(O)cc5)NC(=O)[C@@H]5C[C@@H](O)CN5C(=O)[C@H]([C@@H](C)O)NC4=O)cc3)cc2)cc1 [ANIDULAFUNGIN] ({pTerphenylCO(4''-OnC5H11)}-[Orn(4R-OH,5R-OH)]T[Hyp][hTyr(3S-OH,4S-OH)]T[Pro(3S-OH,4S-Me)]; lactam 1-C)
MIC [1]: 0.5 µg/mL (≈ 0.438 µM)
MIC [2]: 1 µg/mL (≈ 0.877 µM)
MIC [3]: 1 µg/mL (≈ 0.877 µM)
MIC [4]: 0.12 µg/mL (≈ 0.105 µM)
MIC [5]: 1 µg/mL (≈ 0.877 µM)
MIC [6]: 0.25 µg/mL (≈ 0.219 µM)
MIC [7]: 0.032 µg/mL (≈ 0.0281 µM)
MIC [8]: ≤ 0.032 µg/mL
MIC [9]: 0.5 µg/mL (≈ 0.438 µM)
MIC [10]: 2 µg/mL (≈ 1.75 µM)
MIC [11]: 2 µg/mL (≈ 1.75 µM)
MIC [12]: 0.5 µg/mL (≈ 0.438 µM)
MIC [13]: 1 µg/mL (≈ 0.877 µM)
MIC [14]: 32 µg/mL (≈ 28.1 µM)
MIC [15]: 0.5 µg/mL (≈ 0.438 µM)
MIC [16]: ≤ 0.032 µg/mL
MIC [17]: ≤ 0.032 µg/mL
MIC [18]: ≤ 0.032 µg/mL
MIC50 [19]: 0.016 µg/mL (≈ 0.014 µM)
MIC90 [19]: 0.25 µg/mL (≈ 0.219 µM)
MIC50 [20]: 0.016 µg/mL (≈ 0.014 µM)
MIC90 [20]: 1 µg/mL (≈ 0.877 µM)
MIC50 [21]: 0.5 µg/mL (≈ 0.438 µM)
MIC90 [21]: 4 µg/mL (≈ 3.51 µM)
MIC50 [22]: 2 µg/mL (≈ 1.75 µM)
MIC90 [22]: 8 µg/mL (≈ 7.02 µM)
MIC [23]: ≤ 0.016 µg/mL
MIC [24]: ≤ 0.016 µg/mL
MIC50 [25]: 0.03 µg/mL (≈ 0.0263 µM)
MIC90 [25]: 0.12 µg/mL (≈ 0.105 µM)
MIC50 [26]: 0.016 µg/mL (≈ 0.014 µM)
MIC90 [26]: 0.016 µg/mL (≈ 0.014 µM)
MIC50 [27]: 0.03 µg/mL (≈ 0.0263 µM)
MIC90 [27]: 0.12 µg/mL (≈ 0.105 µM)
MIC50 [28]: 0.03 µg/mL (≈ 0.0263 µM)
MIC90 [28]: 0.5 µg/mL (≈ 0.438 µM)
MIC50 [29]: 1 µg/mL (≈ 0.877 µM)
MIC90 [29]: 1 µg/mL (≈ 0.877 µM)
MIC50 [30]: 1 µg/mL (≈ 0.877 µM)
MIC90 [30]: 8 µg/mL (≈ 7.02 µM)
MIC [31]: 0.03 µg/mL (≈ 0.0263 µM)
MIC50 [31]: 0.03 µg/mL (≈ 0.0263 µM)
MIC [32]: 0.06 µg/mL (≈ 0.0526 µM)
MIC50 [32]: 0.06 µg/mL (≈ 0.0526 µM)
MIC [33]: 0.03 µg/mL (≈ 0.0263 µM)
MIC50 [33]: 0.03 µg/mL (≈ 0.0263 µM)
MIC [34]: 0.06 µg/mL (≈ 0.0526 µM)
MIC50 [34]: 0.06 µg/mL (≈ 0.0526 µM)

CC[C@H](C)C[C@H](C)CCCCCCCCC(=O)N[C@H]1C[C@@H](O)[C@@H](NCCN)NC(=O)[C@@H]2[C@@H](O)CCN2C(=O)[C@H]([C@H](O)CCN)NC(=O)[C@H]([C@H](O)[C@@H](O)c2ccc(O)cc2)NC(=O)[C@@H]2C[C@@H](O)CN2C(=O)[C@H]([C@@H](C)O)NC1=O [CASPOFUNGIN]
MIC [1]: 4 µg/mL (≈ 3.66 µM)
MIC [2]: 8 µg/mL (≈ 7.32 µM)
MIC [3]: 8 µg/mL (≈ 7.32 µM)
MIC [4]: 4 µg/mL (≈ 3.66 µM)
MIC [5]: 8 µg/mL (≈ 7.32 µM)
MIC [6]: 2 µg/mL (≈ 1.83 µM)
MIC [7]: 0.25 µg/mL (≈ 0.229 µM)
MIC [8]: ≤ 0.032 µg/mL
MIC [9]: 4 µg/mL (≈ 3.66 µM)
